Data: patent US9120791B2, “Indolizine compounds, a process for their preparation and pharmaceutical compositions containing them” (LES LABORATOIRES SERVIER, priority 2012, dated 2015)

Experiments:
Bcl-2 protein = Bcl-2 protein (Homo sapiens (Human), UniProt P10415); experiment: Inhibition of Bcl-2 by the fluorescence polarisation technique; format: binding; details: fluorescence polarisation test; concentration that inhibits fluorescence polarisation by 50%; read-out: IC50 (nM) Bcl-2 FP
Experimental: The fluorescence polarisation tests were carried out on microplates (384 wells). […] After incubation for 2 hours, the fluorescence polarisation is measured.

[1] = tested on: RS4;11 leukaemia tumour line; experiment: In vitro cytotoxicity (Microculture Tetrazolium Assay, 48 hours); format: cell-based; details: Homo sapiens, RS4;11 cells, 48 hours exposure, MTT, concentration that inhibits cell viability by 50%, read-out: IC50 (nM) MTT RS4
Experimental: The cytotoxicity studies were carried out on the RS4;11 leukaemia tumour line.
The cells are distributed onto microplates and exposed to the test compounds for 48 hours.

[2] = tested on: cleaved form of caspase 3; experiment: Quantification of the cleaved form of caspase 3 in vivo (MSD ELISA, RS4;11 xenograft); design: species or system mice (SCID strain); details: oral treatment, RS4;11 xenograft in SCID mice
Experimental: The ability of the compounds of the invention to activate caspase 3 is evaluated in a xenograft model of RS4;11 leukaemia cells.
1×10^7 RS4;11 cells are grafted subcutaneously into immunosuppressed mice (SCID strain). 25 to 30 days after the graft, the animals are treated orally with the various compounds. After treatment, the tumour masses are recovered and lysed, and the cleaved (activated) form of caspase 3 is quantified in the tumour lysates.
The quantification is carried out using the “Meso Scale Discovery (MSD) ELISA platform” test, which specifically assays the cleaved form of caspase 3. It is expressed in the form of an activation factor corresponding to the ratio between the quantity of cleaved caspase 3 in the treated mice divided by the quantity of cleaved caspase 3 in the control mice.

Chain of Bcl-2 protein (P10415 whole entry): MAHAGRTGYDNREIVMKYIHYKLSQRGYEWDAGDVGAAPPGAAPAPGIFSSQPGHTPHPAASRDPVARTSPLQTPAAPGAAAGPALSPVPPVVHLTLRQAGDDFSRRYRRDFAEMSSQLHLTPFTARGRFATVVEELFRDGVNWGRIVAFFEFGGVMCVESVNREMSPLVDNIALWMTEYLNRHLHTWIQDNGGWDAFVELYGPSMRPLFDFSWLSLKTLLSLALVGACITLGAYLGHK

IC50 (Bcl-2 protein) [nM]	SMILES	IC50 [1] [nM]	Activation factor (versus control), cleaved caspase 3 MSD test in the tumours ([2]; 50 mg/kg)	Activation factor (versus control), cleaved caspase 3 MSD test in the tumours ([2]; 25 mg/kg)
27	CCCCN(C(=O)c1cc(-c2cc3c(cc2C(=O)N2Cc4ccccc4C[C@H]2CN2CCOCC2)OCO3)n2c1CCCC2)c1ccc(O)cc1.Cl [Example 87, N-Butyl-N-(4-hydroxyphenyl)-3-{6-[((3S)-3-(4-morpholinylmethyl)-3,4-dihydro-2(1H)-isoquinolinyl)carbonyl]-1,3-benzodioxol-5-yl}-5,6,7,8-tetrahydro-1-indolizine carboxamide hydrochloride]	121	18.3 (50 mg/kg)	
16	Cl.O=C(c1cc(-c2cc3c(cc2C(=O)N2Cc4ccccc4C[C@H]2CN2CCOCC2)OCO3)n2c1CCCC2)N(c1ccc(O)cc1)c1cccc(F)c1 [Example 122, N-(3-Fluorophenyl)-N-(4-hydroxyphenyl)-3-(6-{[(3S)-3-(morpholin-4-ylmethyl)-3,4-dihydroisoquinolin-2(1H)-yl]carbonyl}-1,3-benzdioxol-5-yl)-5,6,7,8-tetrahydroindolizine-1-carboxamide hydrochloride]	43.5		17.4 (25 mg/kg)
31	Cl.O=C(c1cc(-c2cc(Cl)ccc2C(=O)N2Cc3ccccc3C[C@H]2CN2CCOCC2)n2c1COCC2)N(c1ccccc1)c1ccc(O)cc1 [Example 78, 6-{5-Chloro-2-[((3S)-3-(4-morpholinylmethyl)-3,4-dihydro-2(1H)-isoquinolinyl)carbonyl]phenyl}-N-(4-hydroxyphenyl)-N-phenyl-3,4-dihydro-1H-pyrrolo[2,1-c][1,4]oxazine-8-carboxamide hydrochloride]	101		10.4 (25 mg/kg)
6	Cl.Cn1cc(N(C(=O)c2cc(-c3cc(Cl)ccc3C(=O)N3Cc4ccccc4C[C@H]3CN3CCOCC3)n3c2CCCC3)c2ccc(O)cc2)cn1 [Example 135, 3-(5-Chloro-2-{[(3S)-3-(morpholin-4-ylmethyl)-3,4-dihydroisoquinolin-2(1H)-yl]carbonyl}phenyl)-N-(4-hydroxyphenyl)-N-(1-methyl-1H-pyrazol-4-yl)-5,6,7,8-tetrahydroindolizine-1-carboxamide hydrochloride]	37.4	60 (50 mg/kg)	
